From patent publication US20230255974A1, “USE OF THYROMIMETICS FOR THE TREATMENT OF CANCER” (THE UNIVERSITY OF VERMONT, priority 2020, published 2023)

Experiments:
[1] = tested on: SW1736 cells (SW-EV, SW-TRβ); assay: Migration (wound healing) assay, T3; assay type: cell-based, human; conditions: SW-TRβ treated with T3 vs SW-EV
Protocol: Migration Assay. Cell migration was determined by wound healing assay. Cells were plated and allowed to grow to 100% confluency. Two hours prior to scratching, cells were treated with […] Mitomycin C. A scratch was performed with a P1000 pipette tip and debris was washed away with PBS. Migration media was supplemented with 10^−8 M T3. Images were obtained at 0, 24, 48, and 72 hours. Wound closure was measured using ImageJ macro “Wound Healing Tool” (http://dev.mri.cnrs.fr/projects/imagej-macros/wiki/Wound_Healing_Tool). Values were normalized so that the initial scratch was 0% closure.

[2] = tested on: SW1736 cells (SW-EV, SW-TRβ); assay: Apoptosis assay (PARP1 and caspase 3 cleavage, immunoblot); assay type: cell-based, human
From the text: Immunoblot Analysis. […] Proteins were resolved by polyacrylamide gel electrophoresis on 10% sodium dodecyl sulfate gels EC60752 (Life Technologies) and immobilized onto nitrocellulose membranes (GE Healthcare) by electroblot (Bio-Rad Laboratories). Specific proteins were detected by immunoblotting with the indicated antibodies (Table 4); immunoreactive proteins were detected by enhanced chemiluminescence (Thermo Scientific) on a ChemiDoc XRS+ (Bio-Rad Laboratories).
Apoptosis Assay. Cells were plated at a density of 50,000 cells/well and treated with vehicle (1 N NaOH) or 10^−8 M T3. After 5 days the cells were lysed for analysis by immunoblot. Poly (ADP-ribose) polymerase 1 (PARP1) and Caspase 3 cleavage were assessed to measure apoptotic signaling.
Immunoblot Analysis. […] Proteins were resolved by polyacrylamide gel electrophoresis on 10% sodium dodecyl sulfate gels EC60752 (Thermo Fisher Scientific) and immobilized onto nitrocellulose membranes (GE Healthcare, Chicago, Ill., USA) by electroblot (Bio-Rad Laboratories, Hercules, Calif., USA). Specific proteins were detected by immunoblotting with the indicated antibodies (Table 4); immunoreactive proteins were detected by enhanced chemiluminescence (Thermo Scientific) on a ChemiDoc XRS+ (Bio-Rad Laboratories).

SMILES: N[C@@H](Cc1cc(I)c(Oc2ccc(O)c(I)c2)c(I)c1)C(=O)O [T3, (2S)-2-amino-3-[4-(4-hydroxy-3-iodophenoxy)-3,5-diiodophenyl]propanoic acid]
- scratch closure (AUC) [1]: significantly reduced scratch closure
- caspase 3 and PARP1 cleavage ([2]; SW-EV and SW-TRβ, T3, 5 days): induced cleavage of these apoptotic effectors only in SW-TRβ
- apoptosis (cleaved PARP and caspase) ([2]; SW-TRβ, five days): induces apoptosis
